ChEMBL document CHEMBL5537135, “Novel antimicrobial peptides modified with fluorinated sulfono-γ-AA having high stability and targeting multidrug-resistant bacteria infections” (Eur J Med Chem, 2024)
≈ marks a conversion by molar mass, not a printed value. Calls of active or inactive are those of the source. No cut-off for these calls is given here. Peptide text beside a SMILES is read from it. * marks the point of attachment. X3 = CC(C)C[C@@H](CN(CC(N)=O)S(=O)(=O)c1ccc(C(F)(F)F)cc1)N*

Tests used:
[1] = test system: Escherichia coli; assay: Antimicrobial activity against Escherichia coli ATCC 25922 assessed as inhibition of visible bacterial growth incubated for 18 hrs by broth-dilution method; format: functional
[2] = test system: Pseudomonas aeruginosa; assay: Antibacterial activity against drug-susceptible Pseudomonas aeruginosa […] assessed as reduction in microbial growth; format: functional
[3] = test system: Pseudomonas aeruginosa; assay: Antimicrobial activity against multidrug-resistant Pseudomonas aeruginosa 061 assessed as inhibition of visible bacterial growth incubated for 18 hrs by broth-dilution method; format: functional
[4] = test system: Staphylococcus aureus; assay: Antimicrobial activity against methicillin-resistant Staphylococcus aureus 4 assessed as inhibition of visible bacterial growth incubated for 18 hrs by broth-dilution method; format: functional
[5] = test system: Erythrocyte; assay: Hemolytic activity against mouse Red blood cell incubated for 1 hr; format: toxicity, cell-based
[6] = test system: Pseudomonas aeruginosa; assay: Antimicrobial activity against multidrug-resistant Pseudomonas aeruginosa 157 assessed as inhibition of visible bacterial growth incubated for 18 hrs by broth-dilution method; format: functional
[7] = test system: Pseudomonas aeruginosa; assay: Antimicrobial activity against multidrug-resistant Pseudomonas aeruginosa 050 assessed as inhibition of visible bacterial growth incubated for 18 hrs by broth-dilution method; format: functional
[8] = test system: Staphylococcus aureus; assay: Antimicrobial activity against methicillin-resistant Staphylococcus aureus ATCC 33591 assessed as inhibition of visible bacterial growth incubated for 18 hrs by broth-dilution method; format: functional
[9] = test system: Staphylococcus aureus; assay: Antimicrobial activity against Staphylococcus aureus ATCC 25923 assessed as inhibition of visible bacterial growth incubated for 18 hrs by broth-dilution method; format: functional
[10] = test system: Pseudomonas aeruginosa; assay: Antimicrobial activity against multidrug-resistant Pseudomonas aeruginosa 124 assessed as inhibition of visible bacterial growth incubated for 18 hrs by broth-dilution method; format: functional
[11] = test system: Pseudomonas aeruginosa; assay: Antibiofilm activity against Pseudomonas aeruginosa ATCC 27853 assessed as biofilm thickness at 2 times MIC90 incubated for 24 hrs by confocal laser scanning microscopic analysis; format: functional
[12] = test system: Staphylococcus aureus; assay: Antibiofilm activity against methicillin-resistant Staphylococcus aureus ATCC 33591 assessed as biofilm eradication at 4 times MIC incubated for 2 hrs by crystal violet staining based assay; format: functional, organism-based
[13] = test system: Pseudomonas aeruginosa; assay: Antimicrobial activity against multidrug-resistant Pseudomonas aeruginosa 085 assessed as inhibition of visible bacterial growth incubated for 18 hrs by broth-dilution method; format: functional
[14] = test system: Pseudomonas aeruginosa; assay: Antimicrobial activity against Pseudomonas aeruginosa ATCC 27853 assessed as reduction in microbial growth in presence of human serum; format: functional
[15] = test system: Pseudomonas aeruginosa; assay: Bactericidal activity against Pseudomonas aeruginosa ATCC 27853 at 1 to 4 times MIC by time-kill assay; format: functional, organism-based
[16] = test system: Staphylococcus aureus; assay: Antimicrobial activity against Staphylococcus aureus ATCC 25923 assessed as fold change in MIC in presence of salt solution; format: functional
[17] = test system: Pseudomonas aeruginosa; assay: Antimicrobial activity against multidrug-resistant Pseudomonas aeruginosa 516 assessed as inhibition of visible bacterial growth incubated for 18 hrs by broth-dilution method; format: functional
[18] = test system: Staphylococcus aureus; assay: Antibiofilm activity against methicillin-resistant Staphylococcus aureus ATCC 33591 assessed as biofilm thickness at 2 times MIC90 incubated for 24 hrs by confocal laser scanning microscopic analysis; format: functional
[19] = test system: Pseudomonas aeruginosa; assay: Antibiofilm activity against Pseudomonas aeruginosa ATCC 27853 assessed as biofilm thickness at 8 microg/ml incubated for 24 hrs by confocal laser scanning microscopic analysis; format: functional; conditions: dose 8 µg/ml
[20] = test system: Staphylococcus aureus; assay: Antibiofilm activity against methicillin-resistant Staphylococcus aureus ATCC 33591 assessed as biofilm thickness at 8 microg/ml incubated for 24 hrs by confocal laser scanning microscopic analysis; format: functional; conditions: dose 8 µg/ml
[21] = test system: Pseudomonas aeruginosa; assay: Antimicrobial activity against multidrug-resistant Pseudomonas aeruginosa 156 assessed as inhibition of visible bacterial growth incubated for 18 hrs by broth-dilution method; format: functional
[22] = test system: Cell membrane; assay: Disruption of membrane integrity in Pseudomonas aeruginosa ATCC 27853 incubated for 30 mins by PI staining based CLSM analysis
[23] = test system: Pseudomonas aeruginosa; assay: Antimicrobial activity against Pseudomonas aeruginosa ATCC 27853 assessed as fold increase in MIC in presence of human serum; format: functional
[24] = test system: Staphylococcus aureus; assay: Antimicrobial activity against Staphylococcus aureus ATCC 25923 assessed as reduction in bacterial growth in presence of human serum; format: functional
[25] = test system: Bacillus subtilis; assay: Antimicrobial activity against Bacillus subtilis ATCC 23857 assessed as inhibition of visible bacterial growth incubated for 18 hrs by broth-dilution method; format: functional
[26] = test system: Staphylococcus aureus; assay: Antimicrobial activity against methicillin-resistant Staphylococcus aureus 10 assessed as inhibition of visible bacterial growth incubated for 18 hrs by broth-dilution method; format: functional
[27] = test system: Pseudomonas aeruginosa; assay: Antibiofilm activity against Pseudomonas aeruginosa ATCC 27853 assessed as inhibition of biofilm formation at 4 to 8 microg/ml incubated for 24 hrs by crystal violet staining based analysis; format: functional; conditions: dose 4-8 µg/ml, at 4 to 8 µg/mL
[28] = test system: Staphylococcus aureus; assay: Antimicrobial activity against methicillin-resistant Staphylococcus aureus 8 assessed as inhibition of visible bacterial growth incubated for 18 hrs by broth-dilution method; format: functional
[29] = test system: Pseudomonas aeruginosa; assay: Antimicrobial activity against multidrug-resistant Pseudomonas aeruginosa 125 assessed as inhibition of visible bacterial growth incubated for 18 hrs by broth-dilution method; format: functional
[30] = test system: Salmonella typhimurium; assay: Antimicrobial activity against Salmonella typhimurium ATCC 14028 assessed as inhibition of visible bacterial growth incubated for 18 hrs by broth-dilution method; format: functional, Salmonella enterica subsp. enterica serovar Typhimurium; conditions: Salmonella enterica
[31] = test system: Staphylococcus aureus; assay: Bactericidal activity against Staphylococcus aureus ATCC 33591 at 2 to 4 times MIC; format: functional, organism-based
[32] = test system: Staphylococcus aureus; assay: Antimicrobial activity against methicillin-resistant Staphylococcus aureus 9 assessed as inhibition of visible bacterial growth incubated for 18 hrs by broth-dilution method; format: functional
[33] = Stability in human serum assessed as half life measured for 5 hrs by RP-HPLC analysis; format: ADME, cell-free
[34] = test system: Staphylococcus aureus; assay: Antimicrobial activity against methicillin-resistant Staphylococcus aureus 6 assessed as inhibition of visible bacterial growth incubated for 18 hrs by broth-dilution method; format: functional
[35] = test system: Staphylococcus aureus; assay: Antibiofilm activity against methicillin-resistant Staphylococcus aureus ATCC 33591 assessed as inhibition of biofilm formation at 4 to 8 microg/ml incubated for 24 hrs by crystal violet staining based analysis; format: functional; conditions: dose 4-8 µg/ml, at 4 to 8 µg/mL
[36] = test system: Cell membrane; assay: Disruption of membrane integrity in Staphylococcus aureus ATCC 33591 incubated for 30 mins by PI staining based CLSM analysis; format: cell membranes
[37] = test system: Staphylococcus epidermidis; assay: Antimicrobial activity against Staphylococcus epidermidis ATCC 12228 assessed as inhibition of visible bacterial growth incubated for 18 hrs by broth-dilution method; format: functional
[38] = test system: Staphylococcus aureus; assay: Antimicrobial activity against methicillin-resistant Staphylococcus aureus 3 assessed as inhibition of visible bacterial growth incubated for 18 hrs by broth-dilution method; format: functional
[39] = test system: Pseudomonas aeruginosa; assay: Antimicrobial activity against Pseudomonas aeruginosa ATCC 27853 assessed as inhibition of visible bacterial growth incubated for 18 hrs by broth-dilution method; format: functional
[40] = test system: Staphylococcus aureus; assay: Antimicrobial activity against Staphylococcus aureus ATCC 25923 assessed as reduction in bacterial growth in presence of Ca2+; format: functional
[41] = test system: Staphylococcus aureus; assay: Antibiofilm activity against methicillin-resistant Staphylococcus aureus ATCC 33591 assessed as biofilm thickness at 1 times MIC90 incubated for 24 hrs by confocal laser scanning microscopic analysis; format: functional
[42] = test system: Pseudomonas aeruginosa; assay: Synergistic antibacterial activity against Pseudomonas […] assessed as fractional inhibitory concentration index in presence of polymyxin B by checkerboard assay; format: functional
[43] = test system: Pseudomonas aeruginosa; assay: Antibiofilm activity against Pseudomonas aeruginosa ATCC 27853 assessed as biofilm eradication at 4 times MIC incubated for 1 hr by crystal violet staining based assay; format: functional, organism-based

**Q.** For `CC(C)C[C@@H](CN(CC(N)=O)S(=O)(=O)c1ccc(C(F)(F)F)cc1)NC(=O)[C@H](CCCCN)NC(=O)[C@H](CCCCN)NC(=O)[C@H](CC(C)C)NC(=O)[C@H](CC(C)C)NC(=O)[C@H](CCCCN)NC(=O)[C@H](CC(C)C)NC(=O)[C@@H](N)Cc1ccccc1` (H-FLKLLKK-X3), which MIC [1] is on record?
**A.** Its MIC is 16 µg/mL (≈ 12.8 µM).

**Q.** And the MIC [2]?
**A.** Its MIC is 4 µg/mL.

**Q.** What about the MIC [3] of the same compound?
**A.** The MIC was 8 µg/mL (≈ 6.39 µM).

**Q.** What about the MIC [4] of the same compound?
**A.** Its MIC is 8 µg/mL (≈ 6.39 µM).

**Q.** What about the MHC [5] of the same compound?
**A.** Its MHC is 256 µg/mL.

**Q.** What about the MIC [6] of the same compound?
**A.** Its MIC is 8 µg/mL (≈ 6.39 µM).

**Q.** What about the MIC [7] of the same compound?
**A.** The MIC was 16 µg/mL (≈ 12.8 µM).

**Q.** What about the MIC [8] of the same compound?
**A.** The MIC was 4 µg/mL (≈ 3.19 µM).

**Q.** And the MIC [9]?
**A.** Its MIC is 4 µg/mL (≈ 3.19 µM).

**Q.** What about the MIC [10] of the same compound?
**A.** The MIC was 8 µg/mL (≈ 6.39 µM).

**Q.** And the Activity [11]?
**A.** Its Activity is 20 um.

**Q.** What about the Activity [12] of the same compound?
**A.** The Activity was “Active”.

**Q.** And the MIC [13]?
**A.** The MIC was 16 µg/mL (≈ 12.8 µM).

**Q.** What about the MIC [14] of the same compound?
**A.** The MIC was 8 µg/mL.

**Q.** What about the Activity [15] of the same compound?
**A.** The Activity was “Active”.

**Q.** And the “fold change (FC)” value [16]?
**A.** The value was 0.25.

**Q.** What about the MIC [17] of the same compound?
**A.** The MIC was 16 µg/mL (≈ 12.8 µM).

**Q.** And the Activity [18]?
**A.** The Activity was 20 um.

**Q.** And the Activity [19]?
**A.** Its Activity is 20 um.

**Q.** And the Activity [20]?
**A.** Its Activity is 20 um.

**Q.** And the MIC [21]?
**A.** Its MIC is 16 µg/mL (≈ 12.8 µM).

**Q.** And the Activity [22]?
**A.** The Activity was “Active”.

**Q.** And the “fold change (FC)” value [23]?
**A.** Its value is 2.

**Q.** What about the MIC [24] of the same compound?
**A.** Its MIC is 8 µg/mL.

**Q.** What about the MIC [25] of the same compound?
**A.** The MIC was 4 µg/mL (≈ 3.19 µM).

**Q.** What about the MIC [26] of the same compound?
**A.** The MIC was 8 µg/mL (≈ 6.39 µM).

**Q.** What about the “inhibition (INH)” value [27] of the same compound?
**A.** The value was 50%.

**Q.** What about the MIC [28] of the same compound?
**A.** The MIC was 4 µg/mL (≈ 3.19 µM).

**Q.** And the MIC [29]?
**A.** Its MIC is 16 µg/mL (≈ 12.8 µM).

**Q.** What about the MIC [30] of the same compound?
**A.** Its MIC is 16 µg/mL (≈ 12.8 µM).

**Q.** What about the Activity [31] of the same compound?
**A.** Its Activity is “Active”.

**Q.** And the MIC [32]?
**A.** The MIC was 8 µg/mL (≈ 6.39 µM).

**Q.** And the half-life [33]?
**A.** Its half-life is 2.96 h.

**Q.** And the MIC [34]?
**A.** Its MIC is 4 µg/mL (≈ 3.19 µM).

**Q.** What about the “inhibition (INH)” value [35] of the same compound?
**A.** Its value is 50%.

**Q.** What about the Activity [36] of the same compound?
**A.** Its Activity is “Active”.

**Q.** And the MIC [37]?
**A.** Its MIC is 4 µg/mL (≈ 3.19 µM).

**Q.** And the MIC [38]?
**A.** The MIC was 4 µg/mL (≈ 3.19 µM).

**Q.** And the MIC [39]?
**A.** Its MIC is 8 µg/mL (≈ 6.39 µM).

**Q.** What about the MIC [40] of the same compound?
**A.** The MIC was 32 µg/mL.

**Q.** What about the Activity [41] of the same compound?
**A.** Its Activity is 40 um.

**Q.** What about the “fractional inhibitory concentration index (FICI)” value [42] of the same compound?
**A.** The value was 0.75.

**Q.** And the Activity [43]?
**A.** The Activity was “Active”.
